The OPERA property sets (Mansouri et al. 2018)

Structure (SMILES) | logP
Cc1cccc(NC(=O)NN)c1 | 0.68
NNC(=O)Nc1ccc([N+](=O)[O-])cc1 | -0.18
NNC(=O)Nc1ccccc1 | 0.16
NNC(=O)Nc1ccccc1[N+](=O)[O-] | -0.47
NNC(=O)Nc1ccccc1O | 0.33
NNC(=O)Nc1cccc(C(=O)O)c1 | -0.16
NNC(=O)Nc1ccccc1C(=O)O | -0.49
COc1ccccc1NC(=O)NN | -0.15

The next lines start with the values.

logP | Structure (SMILES)
0.69 | Cc1ccc(NC(=O)NN)cc1
0.87 | NNC(=O)Nc1ccc(Cl)cc1
-0.21 | NNC(=O)Nc1ccc(C(=O)O)cc1
0.17 | COc1ccc(NC(=O)NN)cc1
